Values of other authors in US20110110858A1, “Gold nanoparticle imaging agents and uses thereof” (priority 2009, published 2011).

Conditions: 25° C.

NCCCC[C@H](N[C@@H](CCc1ccccc1)C(=O)O)C(=O)N1CCC[C@H]1C(=O)O [lisinopril]
pKa of the central CO2H: 2.5 | pKa of the lysyl amino group: 10.1 | pKa of the prolyl CO2H: 4.0 | pKa of the secondary amine group: 6.7
